These results are taken from patent US20250340574A1, “MODULATORS OF CYSTIC FIBROSIS TRANSMEMBRANE CONDUCTANCE REGULATOR” (Vertex Pharmaceuticals Incorporated, priority 2022, published 2025).

What all share (format): cell-based
The target of assay [1] is T1, CFTR (F508del/MF-HBE cells) (Homo sapiens, UniProt P13569, DEL508-508).
T1 construct: human bronchial epithelial (HBE) cells derived from CF subjects heterozygous for F508del and a minimal function CFTR mutation (F508del/MF-HBE); endogenous in cells; host or cells: Primary human bronchial epithelial cells from CF subjects (F508del/MF genotype), differentiated at an air-liquid interface
The assay can be described thus: Ussing chamber assay of CFTR-mediated short-circuit currents, Assay B (0.00001 μM to 25 μM, 12 concentrations). As to conditions: with 33 nM potentiator and 18 μM Tezacaftor, 20% human serum; for Emax: read-out: B Max activity (%). On the procedure: (§1) Ussing chamber experiments were performed using human bronchial epithelial (HBE) cells derived from CF subjects heterozygous for F508del and a minimal function CFTR mutation (F508del/MF-HBE) and cultured as previously described (Neuberger T, Burton B, Clark H, Van Goor F Methods Mol Biol 2011:741:39-54). After four days the apical media was removed, and the cells were grown at an air liquid interface for >14 days prior to use.
(§2) To isolate the CFTR-mediated short-circuit (ISC) current, F508del/MF-HBE grown on Costar® Snapwell™ cell culture inserts were mounted in an Ussing chamber and the transepithelial ISC was measured under voltage-clamp recording conditions (Vhold=0 mV) at 37° C. The basolateral solution contained (in mM) 145 NaCl, 0.83 K2HPO4, 3.3 KH2PO4, 1.2 MgCl2, 1.2 CaCl2, 10 Glucose, 10 HEPES (pH adjusted to 7.4 with NaOH) and the apical solution contained (in mM) 145 NaGluconate, 1.2 MgCl2, 1.2 CaCl2, 10 glucose, 10 HEPES (pH adjusted to 7.4 with NaOH) and 30 μM amiloride to block the epithelial sodium channel. Forskolin (20 μM) was added to the apical surface to activate CFTR, followed by apical addition of a CFTR inhibitor cocktail consisting of BPO, GlyH-101, and CFTR inhibitor 172 (each at 20 μM final assay concentration) to specifically isolate CFTR currents. The CFTR-mediated ISC (μA/cm^2) for each condition was determined from the peak forskolin response to the steady-state current following inhibition.
(§3) The activity of the CFTR corrector compounds on the CFTR-mediated ISC was determined in Ussing chamber studies as described above. The F508del/MF-HBE cell cultures were either incubated with the corrector compounds at a range of concentrations in combination with 33 nM (6R,12R)-17-amino-12-methyl-6,15-bis(trifluoromethyl)-13,19-dioxa-3,4,18-triazatricyclo[12.3.1.12,5]nonadeca-1(18),2,4,14,16-pentaen-6-ol and 18 μM Tezacaftor or were incubated with the corrector compounds at a single fixed concentration of 1 μM in combination with 44 nM (6R,12R)-17-amino-12-methyl-6,15-bis(trifluoromethyl)-13,19-dioxa-3,4,18-triazatricyclo[12.3.1.12,5]nonadeca-1(18),2,4,14,16-pentaen-6-ol and 18 μM Tezacaftor for 18-24 hours at 37° C. and in the presence of 20% human serum. The concentration of corrector compounds with 44 nM or 33 nM (6R,12R)-17-amino-12-methyl-6,15-bis(trifluoromethyl)-13,19-dioxa-3,4,18-triazatricyclo[12.3.1.12,5]nonadeca-1(18),2,4,14,16-pentaen-6-ol and 18 μM Tezacaftor during the 18-24 hours incubations was kept constant throughout the Ussing chamber measurement of the CFTR-mediated ISC to ensure compounds were present throughout the entire experiment. The efficacy and potency of the putative F508del correctors was compared to that of the known Vertex corrector, (14S)-8-[3-(2-{Dispiro[2.0.2.1]heptan-7-yl}ethoxy)-1H-pyrazol-1-yl]-12,12-dimethyl-2λ^6-thia-3,9,11,18,23-pentaazatetracyclo[17.3.1.111,14.05,10]tetracosa-1(22),5,7,9,19(23),20-hexaene-2,2,4-trione, in combination with 18 μM Tezacaftor and 1 μM Ivacaftor.
(§4) • Assay A: 0.1 μM to 25 μM, 6 concentrations • Assay B: 0.00001 μM to 25 μM, 12 concentrations • Assay C: 0.026 μM to 25 μM, 6 concentrations • Assay D: Activity at single concentration of 1 μM

In assay [2] the target is T1, CFTR (F508del/MF-HBE cells). Briefly: Ussing chamber assay of CFTR-mediated short-circuit currents, Assay C (0.026 μM to 25 μM, 6 concentrations). The conditions noted are these: with 33 nM potentiator and 18 μM Tezacaftor, 20% human serum; for Emax: read-out: C Max activity (%). The method in brief:
(§5)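 Short-circuit current was recorded at 37 °C under voltage clamp (0 mV) with amiloride 30 μM apically, forskolin 20 μM activation, then BPO/GlyH-101/inh-172 (20 μM each) to isolate CFTR current. Before recording, corrector exposure lasted 18–24 h with 18 μM tezacaftor, 20% human serum, and 33 nM (dose–response) or 44 nM (1 μM fixed) potentiator, maintained throughout.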

Assay [3] has the same target. The assay can be described thus: Ussing chamber assay of CFTR-mediated short-circuit currents, Assay D (single concentration of 1 μM). The conditions noted are these: with 44 nM potentiator and 18 μM Tezacaftor, 18-24 hours, 20% human serum. The method in brief: as §5
Assay [4] shares this target. Briefly: Ussing chamber assay of CFTR-mediated short-circuit currents, Assay A (0.1 μM to 25 μM, 6 concentrations). The conditions noted are these: with 33 nM potentiator and 18 μM Tezacaftor, 20% human serum; for Emax: 18-24 hours, read-out: A Max activity (%). On the procedure:
as §1, §2, §3, §4

T1 sequence (P13569 with tags, fused parts or gaps DEL508-508): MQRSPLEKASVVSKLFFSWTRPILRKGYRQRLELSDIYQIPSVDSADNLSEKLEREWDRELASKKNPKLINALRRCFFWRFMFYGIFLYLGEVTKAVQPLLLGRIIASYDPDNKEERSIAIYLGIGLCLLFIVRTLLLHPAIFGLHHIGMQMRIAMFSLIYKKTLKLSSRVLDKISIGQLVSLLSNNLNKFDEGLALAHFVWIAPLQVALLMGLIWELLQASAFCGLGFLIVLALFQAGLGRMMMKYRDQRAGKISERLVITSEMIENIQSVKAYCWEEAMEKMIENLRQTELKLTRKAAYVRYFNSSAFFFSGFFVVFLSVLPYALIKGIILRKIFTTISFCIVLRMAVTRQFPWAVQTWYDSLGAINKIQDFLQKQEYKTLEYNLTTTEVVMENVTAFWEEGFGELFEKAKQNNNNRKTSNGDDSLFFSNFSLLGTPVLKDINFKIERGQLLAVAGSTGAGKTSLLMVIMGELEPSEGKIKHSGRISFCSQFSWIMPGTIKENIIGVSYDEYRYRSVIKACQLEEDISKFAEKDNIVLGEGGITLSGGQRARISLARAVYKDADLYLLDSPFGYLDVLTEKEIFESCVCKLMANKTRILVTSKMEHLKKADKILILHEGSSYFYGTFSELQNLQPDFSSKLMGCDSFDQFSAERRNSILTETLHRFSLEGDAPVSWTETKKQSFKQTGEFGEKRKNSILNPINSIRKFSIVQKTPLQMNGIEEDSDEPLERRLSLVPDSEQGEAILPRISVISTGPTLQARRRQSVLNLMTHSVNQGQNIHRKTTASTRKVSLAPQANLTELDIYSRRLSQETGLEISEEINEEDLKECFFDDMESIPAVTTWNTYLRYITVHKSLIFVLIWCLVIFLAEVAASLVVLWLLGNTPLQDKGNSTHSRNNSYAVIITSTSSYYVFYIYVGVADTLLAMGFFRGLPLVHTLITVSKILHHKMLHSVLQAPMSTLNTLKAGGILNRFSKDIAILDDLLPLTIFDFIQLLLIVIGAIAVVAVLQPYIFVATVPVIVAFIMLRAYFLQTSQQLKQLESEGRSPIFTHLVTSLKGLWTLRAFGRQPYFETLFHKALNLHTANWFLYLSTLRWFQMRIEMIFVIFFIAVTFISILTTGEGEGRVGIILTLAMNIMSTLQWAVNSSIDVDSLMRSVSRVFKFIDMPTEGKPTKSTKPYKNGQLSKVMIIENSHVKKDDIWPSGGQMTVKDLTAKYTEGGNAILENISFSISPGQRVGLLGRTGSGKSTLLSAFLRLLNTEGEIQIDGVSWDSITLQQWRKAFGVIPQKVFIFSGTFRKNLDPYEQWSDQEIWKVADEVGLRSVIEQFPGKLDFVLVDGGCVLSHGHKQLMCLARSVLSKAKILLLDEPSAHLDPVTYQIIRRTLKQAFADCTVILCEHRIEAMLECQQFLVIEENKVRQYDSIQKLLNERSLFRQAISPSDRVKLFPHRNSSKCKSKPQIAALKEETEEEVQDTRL

What is called EC50 is the concentration giving half of the maximal effect. For the molecule `Cc1cccc(C)c1-c1nc2nc(c1C)OC[C@@H](COC(C)C)N(Cc1cnc3cc(C(C)(C)C)n(C)c3n1)C(=O)c1cccc(c1)S(=O)(=O)N2` [Compound I-182], the Emax in assay [1] (18-24 hours) and in assay [2] (18-24 hours) was over 60% in each case. The EC50 in assay [1] and in assay [2] was under 1000 nM throughout. In addition, the “D activity at 1 μM (%)” value in assay [3] was “+++ (+++ is >60%)”.
On to `Cc1cccc(C)c1-c1cc2nc(n1)NS(=O)(=O)c1cccc(c1)C(=O)N(Cc1cnc3nc(C4CC4)n(C)c3n1)[C@H](COC(C)C)CO2` [Compound I-139], for which the Emax in assay [1] (18-24 hours) is over 60%. Also, in assay [1], the EC50 lay within 3000 to 30000 nM.
Taken in the same sequence, the figures for `Cc1cccc(C)c1-c1cc2nc(n1)NS(=O)(=O)c1cccc(c1)C(=O)N(Cc1cnc3oc(C4CC4)cc3n1)[C@H](CC1CCCC1)CO2` [Compound I-61] were over 60% and 3000 to 30000 nM.
For the molecule `Cc1cccc(C)c1-c1cc2nc(n1)NS(=O)(=O)c1cccc(c1)C(=O)N(Cc1cnc3oc(C(C)C)cc3n1)[C@H](CC1CCC1)CO2` [Compound I-56], the Emax in assay [4] and in assay [1] (18-24 hours) was over 60% each time. Moreover, the half-maximal effective concentration (EC50) is under 1000 nM in assay [4] and 1000 to 3000 nM in assay [1].
On to `Cc1cccc(CC(C)C)c1-c1nc2nc(c1C)OC[C@@H](CC(C)(C)C)N(Cc1cnc3cc(C(C)(C)C)n(C)c3n1)C(=O)c1cccc(c1)S(=O)(=O)N2` [Compound I-206, (5P,11R)-12-({6-tert-butyl-5-methyl-5H-pyrrolo[2,3-b]pyrazin-3-yl}methyl)-11-(2,2-dimethylpropyl)-7-methyl-6-[2-methyl-6-(2-methylpropyl)phenyl]-9-oxa-2λ^6-thia-3,5,12,19-tetraazatricyclo[12.3.1.1∧{4,8}]nonadeca-1(17),4(19),5,7,14(18),15-hexaene-2,2,13-trione], for which the “B Max activity (%)” value in assay [1] (18-24 hours) is listed as “+++ (+++ is >60%)”. The EC50 in assay [1] and in assay [2] was under 1000 nM throughout. Besides, the “C Max activity (%)” value in assay [2] (18-24 hours) is given as “+++ (+++ is >60%)”.
For `Cc1cccc(C)c1-c1cc2nc(n1)NS(=O)(=O)c1cccc(c1)C(=O)N(Cc1nc3cc(C(C)C)oc3cc1F)[C@H](CC13CC(C1)C3)CO2` [Compound I-89], the Emax in assay [4] and in assay [1] (18-24 hours) was over 60% each time. Further, the figures for the concentration giving a half-maximal response (EC50) in assay [4] and in assay [1] were under 1000 nM and 1000 to 3000 nM, respectively.
`Cc1cccc(C)c1-c1cc2nc(n1)NS(=O)(=O)c1cccc(c1)C(=O)N(Cc1cnc3oc(C4CC4)cc3n1)[C@H](CCC(C)C)CO2` [Compound I-130]: the Emax in assay [1] (18-24 hours) is over 60%. Moreover, the concentration for a half-maximal effect (EC50) in assay [1] fell in the range of 3000 to 30000 nM.
With `Cc1cccc(C)c1-c1cc2nc(n1)NS(=O)(=O)c1cccc(c1)C(=O)N(Cc1cnc3oc(C4CC4)cc3n1)C(CCC1(C)CC1)CO2` (single isomer, unassigned) [Compound I-71, 12-[(6-cyclopropylfuro[2,3-b]pyrazin-2-yl)methyl]-6-(2,6-dimethylphenyl)-11-[2-(1-methylcyclopropyl)ethyl]-2,2-dioxo-9-oxa-2λ^6-thia-3,5,12,19-tetrazatricyclo[12.3.1.14,8]nonadeca-1(18),4(19),5,7,14,16-hexaen-13-one], the Emax in assay [4] and in assay [1] (18-24 hours) was over 60% throughout. Moreover, the EC50 in assay [4] is under 1000 nM; in assay [1], 3000 to 30000 nM.
On to `Cc1cccc(C)c1-c1cc2nc(n1)NS(=O)(=O)c1cccc(c1)C(=O)N(Cc1cnc3oc(C4CC4)cc3n1)[C@H](CC1CC1)CO2` [Compound I-103], for which the Emax in assay [4] and in assay [1] (18-24 hours) was over 60% each time. Further, the figures for the EC50 in assay [4] and in assay [1] were under 1000 nM and 1000 to 3000 nM, respectively.
With `Cc1cccc(CC(C)C)c1-c1nc2nc(c1C)OC[C@@H](CC(C)(C)C)N(Cc1cnc3oc(C(C)C)cc3n1)C(=O)c1cccc(c1)S(=O)(=O)N2` (atropisomer, axis not shown) [Compound I-65], the Emax in assay [4] and in assay [1] (18-24 hours) was over 60% each time. Further, the EC50 in assay [4] is under 1000 nM; in assay [1] it was 1000 to 3000 nM.
`Cc1cccc(CC(C)C)c1-c1nc2nc(c1C)OC[C@@H](CC13CC(C1)C3)N(Cc1cnc3cc(C(C)(C)C)n(C)c3n1)C(=O)c1cccc(c1)S(=O)(=O)N2` [IV-1]: in assay [1], the EC50 is under 1000 nM and the Emax is over 60%.
As to `Cc1cccc(C)c1-c1nc2nc(c1C)OC[C@@H](CC(C)(C)C)N(Cc1cnc3nc(C(C)C)n(C)c3n1)C(=O)c1cccc(c1)S(=O)(=O)N2` [Compound I-167], the Emax in assay [1] (18-24 hours) is over 60%. In assay [1], the EC50 was under 1000 nM.
Taken in the same sequence, the figures for `Cc1cccc(C)c1-c1cc2nc(n1)NS(=O)(=O)c1cccc(c1)C(=O)N(Cc1cnc3oc(C4CCC4)cc3n1)[C@H](COC(C)C)CO2` [Compound I-138] were over 60% and 3000 to 30000 nM.
Turning to `COCCc1c(C(C)(C)C)n(C)c2nc(CN3C(=O)c4cccc(c4)S(=O)(=O)Nc4nc(c(OC)c(-c5c(C)cccc5CC(C)C)n4)OC[C@H]3CC(C)(C)C)cnc12` (atropisomer, axis not shown) [IV-94], in assay [1], the half-maximal effective concentration (EC50) was under 1000 nM and the Emax was over 60%. Also, in assay [2], the EC50 is under 1000 nM and the Emax is over 60%.
As to `Cc1cccc(C)c1-c1cc2nc(n1)NS(=O)(=O)c1cccc(c1)C(=O)N(Cc1cnc3cc(C4CC4)n(C)c3n1)[C@H](COC(C)C)CO2` [Compound I-151], in assay [1] (18-24 hours), the Emax was over 60%. Further, in assay [1], the EC50 is 3000 to 30000 nM.
Taken in the same sequence, the figures for `Cc1cccc(C)c1-c1cc2nc(n1)NS(=O)(=O)c1cccc(c1)C(=O)N(Cc1cnc3oc(C4CC4)cc3n1)[C@H](COC1CCCC1)CO2` [Compound I-118] were over 60% and 3000 to 30000 nM.
Turning to `Cc1cccc(C)c1-c1cc2nc(n1)NS(=O)(=O)c1cccc(c1)C(=O)N(Cc1nc3c(cc1F)cc(C(C)C)n3C)[C@H](CC1(C)CC1)CO2` [Compound I-80], in assay [4], the Emax is over 60% and the EC50 is under 1000 nM.
Taken in the same sequence, the figures for `Cc1cccc(C)c1-c1cc2nc(n1)NS(=O)(=O)c1cccc(c1)C(=O)N(Cc1cnc3oc(C(C)C)cc3n1)[C@H](CCC(C)(C)F)CO2` (single isomer, unassigned) [Compound I-36] were over 60% and under 1000 nM.
